Assays:
[1] = tested on: E. coli ML-35 (ATCC 43827)
From the text: (§1) The permeabilization of E. coli ML-35 (ATCC 43827) membranes was studied for selected compounds (A4, B2, C2, B7, and C7) to compare their activity and membrane disruption over time. […] For OM and IM permeabilization, CENTA and ONPG were used, respectively. The permeabilization of OM causes the release of periplasmic β-lactamase, which hydrolyzes CENTA’s β-lactam ring to form a chromophore, 2-nitro-5-thiobenzoate (TNB) anion, while the disruption of IM results in the release of β-galactosidase, which hydrolyzes ONPG into galactose and a chromophore, ortho-nitrophenol (ONP). Both products of enzymatic reaction absorb light at 405 nm.
The MICs were determined by the broth microdilution method according to the Clinical and Laboratory Standard Institute guidelines. For this purpose, initial inoculums of bacteria (5 × 10^5 CFU/mL) in MHB and yeasts (2 × 10^3 CFU/mL) in RPMI-1640 with 2% D-glucose were exposed to the ranging concentration of lipopeptides (0.5–256 μg/mL) and incubated at 37 °C for 18 h and 24 h, respectively. The experiments were conducted on 96-well microtiter polystyrene plates (Kartell, Noviglio, Italy). The growth was assessed visually after incubation, and the MIC was assumed as the lowest peptide concentration at which a noticeable growth of microorganisms was inhibited. All experiments were conducted in triplicate.
Inner and outer membranes permeabilization kinetics were evaluated using Escherichia coli ML-35 (ATCC 43827) and chromogenic substrates—CENTA (BioVision, Milpitas, CA, USA) and o-nitrophenyl-β-d-galactopyranoside (ONPG) (Sigma-Aldrich, Steinheim, Germany), as described previously. To examine OM permeabilization, CENTA was used as a β-lactamase substrate. In effect of OM permeabilization, the enzyme can hydrolyze CENTA’s β-lactam ring. The resulting color change (2-nitro-5-thiobenzoate anion, TNB^-) could be measured spectrophotometrically at 405 nm. The IM permeabilization was monitored with ONPG, which is a chromogenic β-galactosidase substrate. The product of this reaction ([…]) was measured spectrophotometrically at 405 nm (Multiskan GO Microplate Spectrophotometer, Thermo Fisher Scientific, Vantaa, Finland). […] Bacteria were incubated in lysogeny broth medium (LB; Biocorp, Warszawa, Poland) for 24 h at 37 °C. Subsequently, the cells were diluted in a fresh LB medium and incubated at 37 °C up to a mid-log phase (ca. 3 h). The culture was centrifuged (3 min, 1100× g) and rinsed twice with a PBS. The bacteria were resuspended in PBS up to a concentration of 5 × 10^6 CFU/mL. The final concentration of ONPG and CENTA was 1.5 mM and 0.15 mM, respectively. The ONPG/CENTA in PBS (Sigma-Aldrich, Steinheim, Germany) was used as a negative control. […] Readings were taken every 15 min for 3 h at 37 °C [125, 142, 143, 144]. Experiments were performed in triplicate on 96-well flat bottom microtiter polystyrene plates.

[2] = tested on: E. coli ML-35 (ATCC 43827); experiment: Outer membrane (OM) permeabilization kinetics, CENTA; type: cell-based, Escherichia coli; details: over 3 h, 2 µg/mL (MIC)
From the text: as §1
Inner and outer membranes permeabilization kinetics were evaluated using Escherichia coli ML-35 (ATCC 43827) and chromogenic substrates—CENTA (BioVision, Milpitas, CA, USA) and o-nitrophenyl-β-d-galactopyranoside (ONPG) (Sigma-Aldrich, Steinheim, Germany), as described previously. To examine OM permeabilization, CENTA was used as a β-lactamase substrate. In effect of OM permeabilization, the enzyme can hydrolyze CENTA’s β-lactam ring.

[3] = tested on: Pseudomonas aeruginosa ATCC 9027; set-up: method as in PMID 31581500; details: biofilm, previous study ref 65; cited from earlier work
[4] = tested on: Staphylococcus aureus ATCC 25923; set-up: method as in PMID 31581500; details: planktonic culture, previous study ref 65; cited from earlier work

polymyxin B [reference compound]
MIC E. coli ML-35 (ATCC 43827) [1]: 2 µg/mL | increase of absorbance at 405 nm, OM permeabilization [2]: ca. 0.25 AU

C12-KKC-NH2 [Compound C12-KKC-NH2]
MBEC P. aeruginosa ATCC 9027 [3]: > 512

C14-KKC-NH2 [Compound C14-KKC-NH2]
MIC S. aureus ATCC 25923 [4]: 32 µg/mL

Source: article PMC8036666, “Biological and Physico-Chemical Characteristics of Arginine-Rich Peptide Gemini Surfactants with Lysine and Cystine Spacers” (International Journal of Molecular Sciences, 2021)
